Measured values taken from PubChem BioAssay (NCI).
Several values for one entry are separate records, joined by “and”; a condition that tells them apart may be missing. Equal entries are not always repeated.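 96-well plates; 48 h exposure; 5 concentrations. Endpoints by linear interpolation between flanking doses. Not reached: highest tested concentration assigned. GI50 is the concentration that inhibits growth by half. TGI marks complete inhibition of growth.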

Assays:
Assay in all cases: inhibition of tumour cell growth, NCI panel, 48 h
HCT-15 colon = test system: HCT-15 colon
RXF 393 renal = test system: RXF 393 renal
OVCAR-4 ovarian = test system: OVCAR-4 ovarian
OVCAR-3 ovarian = test system: OVCAR-3 ovarian
TK-10 renal = test system: TK-10 renal
HCT-116 colon = test system: HCT-116 colon
MALME-3M melanoma = test system: MALME-3M melanoma
A549 NSCLC = test system: A549 NSCLC
NCI/ADR-RES ovarian = test system: NCI/ADR-RES ovarian
SNB-75 CNS = test system: SNB-75 CNS

Row | SMILES | GI50 (HCT-15 colon) | TGI (HCT-15 colon) | GI50 (RXF 393 renal) [µM] | TGI (RXF 393 renal) [µM] | GI50 (OVCAR-4 ovarian) [µM] | TGI (OVCAR-4 ovarian) [µM] | GI50 (OVCAR-3 ovarian) [µM] | TGI (OVCAR-3 ovarian) [µM] | GI50 (TK-10 renal) [µM] | TGI (TK-10 renal) | GI50 (HCT-116 colon) | TGI (HCT-116 colon) | GI50 (MALME-3M melanoma) [µM] | TGI (MALME-3M melanoma) | GI50 (A549 NSCLC) [µM] | TGI (A549 NSCLC) [µM] | GI50 (NCI/ADR-RES ovarian) [µM] | TGI (NCI/ADR-RES ovarian) [µM] | GI50 (SNB-75 CNS) [µM] | TGI (SNB-75 CNS)
1 | CCCCCCCCCCCC1=NC(C)(C)CN1CC(C)O (stereo not given) | 1.95 µM | 4.75 µM | 2.55 | 6.96 | 10.6 | 22.4 | 3.35 | 12.7 | 10.3 | 22.7 µM | 2.06 µM | 4.9 µM | 5.64 | 20.4 µM | 6.83 | 22.6 | 11.8 | 24.1 | 9.26 | 21.3 µM
2 | Clc1ccc2nc(Cl)c3ccccc3c2c1 | > 100 µM | > 100 µM | 9.15 | 30.4 | 2.03 | 5.02 | 24.7 | > 100 | 4.96 | 31.8 µM | 4.34 µM | 22.1 µM | 10.7 | 71.1 µM | 5.92 | > 100 | 17.8 | > 100 | 2.09 | 8.16 µM
3 | CC#CC#C/C=C1\C=CC2(OC=CC2OC(C)=O)O1 (stereo not given) | 16.4 µM and 4.78 µM | 30 µM and 27.8 µM |  | 26.1 | 29.1 | > 100 |  | 74.4 |  | > 100 µM and 59.7 µM | 39.8 µM and 17.3 µM | > 100 µM and 33.1 µM |  | > 100 µM and 69.8 µM |  | > 100 |  | > 100 |  | > 100 µM and 95.9 µM
4 | CCOC(=O)c1ccccc1SC(C[N+](=O)[O-])c1ccccc1 (stereo not given) | 2.37 µM | 6.78 µM | 1.64 | 3.09 | 12.9 | 25.5 | 10.4 | 22.4 | 5.91 | 18.8 µM | 1.46 µM | 2.98 µM | 14.8 | 29.5 µM | 5.18 | 21.6 | 22.5 | 64.1 | 12.7 | 41.6 µM
5 | Cc1ccc2nc3c(n2c1)C(=O)C(=O)c1ccccc1-3 | 0.17 µM | 0.416 µM | 0.227 | 10.2 | 0.21 | 0.537 | 0.285 | 1.07 | 1.28 | 2.9 µM | 0.188 µM | 1.09 µM | 0.157 | 0.32 µM | 0.199 | 0.62 | 0.348 | 2.51 | 0.266 | 0.618 µM
6 | COC1C(CO)OC(n2c3c(Cl)cccc3c3c4c(c5c6cccc(Cl)c6[nH]c5c32)C(=O)NC4=O)C(O)C1O (stereo not given) |  | > 100 µM |  | 4.95 |  | 18.3 |  | 6.67 |  | 19.7 µM |  | 0.781 µM |  | 1.12 µM |  | 8.2 |  | > 100 |  | 5.87 µM
7 | COc1cc(-c2nc(-c3ccc(-c4nc5ccc(F)cc5[nH]4)cc3)no2)cc(OC)c1OC | 3.15 µM | 12.8 µM | 1.9 | 5.44 | 2.82 | 11.3 | 2.56 | 5.83 | 8.27 | 34.1 µM |  |  | 2.32 | 6.52 µM | 3.42 | 14.6 | 2.49 | 8.26 | 7.74 | 62.4 µM
8 | CN(C)c1ccc2cc3ccc(N(C)C)cc3nc2c1 |  | 2.94 µM |  | 22.7 |  | 3.37 |  | 13.4 |  | 9.21 µM |  |  |  | 10.1 µM |  | 7.49 |  | 5.06 |  | 11.9 µM
